Assay results published in patent publication US20260076973A1 (priority 2023, published 2026).
pIC50: −log10 of the molar value. Counter-ions that a name gives are not always drawn. Like-named read-outs stand apart in the source and are kept apart here. Where a SMILES comes first, the peptide text is derived from it.

Tests used:
SARS-CoV-2 (WA1) = assay: microbe, parasite or virus in culture; format: cell-based; settings: for antiviral effect of positive controls in the CPE assay: SARS-CoV-2 CPE assay
229E virus = assay: 229E coronavirus infection assay in Huh7.5 cells; format: cell-based; settings: read-out: 229E IC50
OC43 virus = assay: OC43 coronavirus infection assay in Huh7.5 cells; format: cell-based; settings: read-out: OC43 IC50
[1] = Cytotoxicity counter screen in Vero E6 cells (Cell Titer-Glo); settings: African green monkey
[2] = system: SARS CoV-2 nanoluciferase reporter virus (NLRV); assay: microbe, parasite or virus in culture; format: cell-based; settings: Severe acute respiratory syndrome coronavirus 2, A549-ACE2, 72 h
VeroE6 cells = assay: Cytotoxicity counter screen in Vero E6 cells (Cell Titer-Glo); settings: read-out: Cytotoxicity CC50; reference compounds, Vero E6 cells, 72 hours
[3] = Severe acute respiratory syndrome coronavirus 2, Vero C1008
[4] = Betacoronavirus 1, OC43, Huh7.5, 72 h
[5] = Severe acute respiratory syndrome coronavirus 2, Vero C1008, 72 h, reference compounds, SARS-CoV-2 (WA1) CPE assay, Round 2, Vero E6, 72 hours, read-out: Antiviral IC50
[6] = Severe acute respiratory syndrome coronavirus 2, Vero C1008, VIRADEM compounds, SARS-CoV-2(WA1) CPE assay, Round 2, concentration range 1000-0.05 nM, Vero E6, read-out: IC50
[7] = VIRADEM compounds, SARS-CoV-2(WA1) CPE assay, Round 2, concentration range 1000-0.05 nM, Vero E6, read-out: IC50

Compound: CCC(CC)COC(=O)[C@H](C)N[P@](=O)(OC[C@H]1O[C@@](C#N)(c2ccc3c(N)ncnn23)[C@H](O)[C@@H]1O)Oc1ccccc1 [Remdesivir, reference compound]
- pIC50 (SARS-CoV-2 (WA1); [3]): 5.00 to 5.15
- pIC50 (SARS-CoV-2 (WA1); Severe acute respiratory syndrome coronavirus 2, Vero C1008, 72 h, read-out: Antiviral IC50): 4.97
- Selectivity Index (CC50/IC50) (SARS-CoV-2 (WA1); reference compounds, Round 2): >2.8
- pIC50 (229E virus; Huh7.5, 48 h): 7.89
- pIC50 (OC43 virus; [4]): 8.01
- CC50 at 72 h [1]: > 30000 nM

Compound: CC(=O)Nc1ccc(Nc2nc(Nc3ccc(C)c(C)c3)nc(N3CCOCC3)n2)cc1 [VIRADEM-11918, N-{4-[4-(3,4-Dimethylphenylamino)-6-morpholin-4-yl-[1,3,5]triazin-2-ylamino]phenyl}-acetamide]
- pIC50 [2]: 7.72
- IC90 [2]: 29 nM

Compound: CCN(CC)CCCC(C)Nc1ccnc2cc(Cl)ccc12 (stereo not shown) [Chloroquine, reference compound]
- antiviral effect of positive controls in the CPE assay (SARS-CoV-2 (WA1)): dose dependent antiviral effect
- pIC50 (SARS-CoV-2 (WA1); [5]): 5.39
- CC50 at 72 h [1]: > 30000 nM

Compound: CCN(CCO)CCCC(C)Nc1ccnc2cc(Cl)ccc12 (stereo not shown) [Hydroxychloroquine, reference compound]
- pIC50 (SARS-CoV-2 (WA1); [5]): 5.68
- CC50 at 72 h ([1]; Vero E6 cells): > 30000 nM

Compound: CC(C)C[C@H](NC(=O)OCc1ccccc1)C(=O)N[C@@H](CC(C)C)C(=O)N[C@@H](Cc1ccc(O)cc1)C(=O)CF [Calpain Inhibitor IV, reference compound] (HELM PEPTIDE1{[O=C(OCc1ccccc1)[*:2]].L.L.Y.[FC[*:1]]}$$$$V2.0)
- antiviral effect of positive controls in the CPE assay (SARS-CoV-2 (WA1)): dose dependent antiviral effect
- pIC50 (SARS-CoV-2 (WA1); reference compounds, SARS-CoV-2 (WA1) CPE assay, Round 2, Vero E6, 72 hours, read-out: Antiviral IC50): 6.62
- CC50 (VeroE6 cells): > 7170 nM

Compound: Cc1ccc(Nc2nc(Nc3ccc(C)c(C)c3)nc(N3CCOCC3)n2)cc1 [VIRADEM-11141]
- pIC50 (SARS-CoV-2 (WA1); [3]): 6.92
- pIC50 [2]: 7.01
- IC90 [2]: 118 nM
- pIC50 (229E virus; Huh7.5, 48 h): 6.59
- pIC50 (OC43 virus; [4]): 5.78

Compound: C1CCN(c2nc(N3CCOCC3)nc(N3CCOCC3)n2)CC1 [VIRADEM-10903, 2,4-Dimorpholin-4-yl-6-piperidin-1-yl-[1,3,5]triazin hydrochloride]
- pIC50 (SARS-CoV-2 (WA1); [6]): < 6.00

Compound: COc1ccccc1Nc1nc(N2CCCC2)nc(N2CCCC2)n1 [VIRADEM-11597, (4,6-Dipyrrolidin-1-yl-[1,3,5]triazin-2-yl)-(2-methoxyphenyl)-amine hydrochloride]
- pIC50 (SARS-CoV-2 (WA1); [6]): < 6.00

Compound: CC(=O)Nc1ccc(Nc2nc(Nc3ccc(Cl)cc3)nc(N3CCOCC3)n2)cc1 [VIRADEM-11847, N-{4-[4-(4-Chlorophenylamino)-6-morpholin-4-yl-[1,3,5]triazin-2-ylamino]-phenyl}-acetamide]
- pIC50 (SARS-CoV-2 (WA1); [6]): 7.70
- pIC50 [2]: 7.49
- IC90 [2]: 41 nM
- pIC50 (229E virus; 48 h, Huh7.5 cells, fixed 2 days after infection): 6.86
- pIC50 (OC43 virus; Betacoronavirus 1, OC43, 72 h, Huh7.5 cells, fixed 3 days after infection): 6.00

Compound: c1ccc(Nc2nc(N3CCOCC3)nc(N3CCOCC3)n2)cc1 [VIRADEM-10846, (4,6-Dimorpholin-4-yl-[1,3,5]triazin-2-yl)-phenylamine hydrochloride]
- pIC50 (SARS-CoV-2 (WA1); [6]): < 6.00

Compound: CCCCc1ccc(Nc2nc(Nc3cccc(C(C)=O)c3)nc(N3CCOCC3)n2)cc1 [VIRADEM-12037, 1-{3-[4-(4-Butylphenylamino)-6-morpholin-4-yl-[1,3,5]triazin-2-ylamino]-phenyl}-ethanone]
- pIC50 (SARS-CoV-2 (WA1); [6]): < 6.00

Compound: COc1ccc(Nc2nc(N3CCOCC3)nc(N3CCC(C)CC3)n2)cc1 [VIRADEM-15220, (4-Methoxyphenyl)-[4-(4-methylpiperidin-1-yl)-6-morpholin-4-yl-[1,3,5]triazin-2-yl]amine]
- pIC50 (SARS-CoV-2 (WA1); [6]): < 6.00

Compound: N-(3-Fluorophenyl)-6-pyrrolidin-1-yl-1,3,5]triazine-2,4-diamine hydrochloride [VIRADEM-12180]
- pIC50 (SARS-CoV-2 (WA1); [7]): < 6.00

Compound: Clc1cccc(Nc2nc(N3CCOCC3)nc(N3CCOCC3)n2)c1 [VIRADEM-10902, (3-Chlorophenyl)-(4,6-dimorpholin-4-yl-[1,3,5]triazin-2-yl)-amine hydrochloride]
- pIC50 (SARS-CoV-2 (WA1); [6]): < 6.00

Compound: S=C(NNc1nc(N2CCOCC2)nc(N2CCOCC2)n1)Nc1ccccc1 [VIRADEM-10867, 2-(4,6-dimorpholine-4-yl-1,3,5-triazine-2-yl)-N-phenylhydrazine-carbothioamide]
- pIC50 (SARS-CoV-2 (WA1); [6]): < 6.00

Compound: N-(3-Chlorophenyl)-N^1-phenyl)-6-pyrrolidin-1-yl-[1,3,5]triazine-2,4-diamine hydrochloride [VIRADEM-12312]
- pIC50 (SARS-CoV-2 (WA1); [7]): < 6.00

Compound: c1cc2c(cc1Nc1nc(N3CCCC3)nc(N3CCCC3)n1)OCCO2 [VIRADEM-11596, -(2,3-dihydrobenzo[1,4]dioxin-6-yl)-(4,6-dipyrrolidin-1-yl-[1,3,5]triazin-2-yl)-amine hydrochloride]
- pIC50 (SARS-CoV-2 (WA1); [7]): < 6.00

Compound: Cc1ccc(Nc2nc(N3CCOCC3)nc(N3CCOCC3)n2)cc1 [VIRADEM-10882, (4,6-Dimorpholin-4-yl-[1,3,5]triazin-2-yl)-p-tolyl-amine hydrochloride]
- pIC50 (SARS-CoV-2 (WA1); [6]): < 6.00
